Patent US20140170208A1, “TRANSDERMAL PATCH FORMULATION” (LABTEC GMBH, priority 2009, published 2014)
Like-named read-outs stand apart in the source and are kept apart here.

Legend:
[1] = Procedure: Rasagiline base (50 mg) was dissolved in the presented solvents (0.14 g) and the placed into an over at 70° C. to monitor its loss.
[2] = remark: listed apart in the source
Procedure: 1.5 Further Solubility Experiments Using IPM and “Silicone Oil 1000”
1.7 Concentrating of Rasagiline in IPM
2.2 Solubility of Rasagiline in Polidocanol
Experiment 3.8: Rasagiline Solubility in a Plastoid Bneutral Oil Solution
• 50 mg rasagiline WE 8596 in 300 mg Plastoid B-solution from exp.

[3] = remark: listed apart in the source
Excerpt: Pilot Test Regarding the Solubility of Rasagiline Base in Non-Volatile Solvents for Use in a TDS
1.1 Solubility of Rasagiline Base

[4] = ca. 20-25 mg in 0.5 g or mL, ca. 1:20 mixture
[5] = ca. 20-25 mg in 1.0 g or mL, ca. 1:40 mixture

C#CCN[C@@H]1CCc2ccccc21 [rasagiline base, rasagiline]
Loss of rasagiline substance after removal of solvent by drying (FIG. 3) ([1]; 50 mg in 0.14 g pure water, oven at 70° C.): significant sublimation
Sublimation of rasagiline base at 60-70° C. ([1]; melted in beaker glass at 60-70° C., covered with ice-cold watch glass): re-sublimates
Rasagiline solubility in a Plastoid B neutral oil solution [2]: dissolved
Solubility in silicone oil 1000 [2]: 25-30 mg/g silicone oil 1000
Solubility of rasagiline in polidocanol [2]: completely soluble
Solubility of rasagiline base in Cremophor EL [3, 4]: Nearly completely
Solubility of rasagiline base in Glycerol anhydrous [3, 4]: Not Solubilised
Solubility of rasagiline base in Isopropyl myristate (IPM) [3, 4]: Solubilised
Solubility of rasagiline base in PEG 400 [3, 4]: Solubilised
Solubility of rasagiline base in Polysorbat 80 [3, 4]: Solubilised
Solubility of rasagiline base in Propylenglycol [3, 4]: Solubilised
Solubility of rasagiline base in Silicone oil 1000 [3, 4]: Not Solubilised
Solubility of rasagiline base in Vitamin-E-acetate [3, 4]: Nearly completely
Solubility of rasagiline base in paraffine, viscous [3, 4]: Not Solubilised
Solubility of rasagiline base in Cremophor EL [3, 5]: Solubilised
Solubility of rasagiline base in Glycerol anhydrous [3, 5]: Not completely solubilised,
Solubility of rasagiline base in Isopropyl myristate (IPM) [3, 5]: Solubilised
Solubility of rasagiline base in PEG 400 [3, 5]: Solubilised
Solubility of rasagiline base in Polysorbat 80 [3, 5]: Solubilised
Solubility of rasagiline base in Propylenglycol [3, 5]: Solubilised
Solubility of rasagiline base in Silicone oil 1000 [3, 5]: Solubilised
Solubility of rasagiline base in Vitamin-E-acetate [3, 5]: Solubilised
Solubility of rasagiline base in paraffine, viscous [3, 5]: Solubilised
